Laboratory results reported in patent US8178577B2, “Tricyclic derivatives as potent and selective histone deacetylase inhibitors” (Shenzhen Chipscreen Biosciences Ltd., priority 2008, dated 2012).

How the values were obtained:
total HDAC enzyme = test: In vitro inhibition of total HDAC enzyme activity (BIOMOL HDAC Fluorimetric Assay/Drug Discovery Kit, HeLa extract); type: biochemical
Procedure: Measurement of In Vitro Inhibition of Total HDAC Enzyme Activity:
The in vitro inhibition of total HDAC enzyme was determined by HDAC Fluorimetric Assay/Drug Discovery Kit (BIOMOL) according to manufacture's instruction. • 1. Add Assay buffer, diluted trichostatin A or test inhibitor to appropriate wells of the microtiter plate. Following table lists examples of various assay types and the additions required for each test.
• 2. Add diluted HeLa extract or other HDAC sample to all wells except those that are to be “No Enzyme Controls” (Blank). • 3. Allow diluted Fluor de LYS™ Substrate and the samples in the microtiter plate to equilibrate to assay temperature (25° C.). • 4. Initiate HDAC reactions by adding diluted substrate (25 μl) to each well and mixing thoroughly. • 5. Allow HDAC reactions to proceed for desired length of time and then stop them by addition of Fluor de Lys™ Developer (50 μl). Incubate plate at room temperature (25° C.) for 10-15 min. • 6. Read samples in a microtiter-plate reading fluorimeter capable of excitation at a wavelength in the range 350-380 nm and detection of emitted light in the range 440-460 nm. Measurement of In Vivo Inhibition of HDAC Subtype Activity: […]

HDAC Class I = test: P21 reporter gene assay in HeLa cells; type: cell-based; conditions: relative to SAHA, 24 hours
Procedure: (§1) HDAC subtype selectivity inhibition assay of tested compounds was carried out by several reporter gene assays experiments. Briefly, HeLa cells were seeded in 96-well plates the day before transfection to give a confluence of 50-80%. Cells were transfected with one of reporter gene plasmids containing a promoter sequences or response elements upstream of a luciferase gene construct using FuGene6 transfection reagent according to the manufacturer's instructions (Roche). The promoter or response elements including p21-promoter, gdf11-promoter, serum response element (SRE), MEF-binding element were fused upstream to the luciferase gene reporter construct. For normalizing the transfection efficiency, a GFP expression plasmid was cotransfected. Cells were allowed to express protein for 24 hours followed by addition of individual compounds or the vehicle (DMSO). 24 hours later the cells were harvested, and the luciferase assays were performed using the luciferase assay kit according to the manufacturer's instructions (Promega). To normalize the data from the luciferase assays, β-galactosidase activity from transfected cells was measured using a kit (Promega) as instructed by the manufacturer.

HDAC3 = target: T1, HDAC3 (Homo sapiens, UniProt O15379); test: gdf11 reporter gene assay in HeLa cells; type: cell-based; conditions: for activation at 10 µM: HeLa, 24 h, read-out: % of SAHA Response for HDAC3 at 10 μM (gdf11 reporter gene)
T1 construct: endogenous in cells; host or cells: HeLa
T1 sequence (O15379 whole entry): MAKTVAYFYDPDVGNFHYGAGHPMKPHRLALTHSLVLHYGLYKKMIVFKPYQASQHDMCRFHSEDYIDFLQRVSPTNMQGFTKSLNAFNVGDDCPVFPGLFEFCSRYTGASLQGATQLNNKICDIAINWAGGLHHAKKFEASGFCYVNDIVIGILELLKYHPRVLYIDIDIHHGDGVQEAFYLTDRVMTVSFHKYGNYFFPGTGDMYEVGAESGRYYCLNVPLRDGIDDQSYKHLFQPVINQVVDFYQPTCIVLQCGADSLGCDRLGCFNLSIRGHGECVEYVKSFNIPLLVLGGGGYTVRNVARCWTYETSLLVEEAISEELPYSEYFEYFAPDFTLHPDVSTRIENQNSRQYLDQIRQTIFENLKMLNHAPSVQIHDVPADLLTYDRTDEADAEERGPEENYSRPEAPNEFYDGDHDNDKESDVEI
T1 sequence (Q9Y618 whole entry partner): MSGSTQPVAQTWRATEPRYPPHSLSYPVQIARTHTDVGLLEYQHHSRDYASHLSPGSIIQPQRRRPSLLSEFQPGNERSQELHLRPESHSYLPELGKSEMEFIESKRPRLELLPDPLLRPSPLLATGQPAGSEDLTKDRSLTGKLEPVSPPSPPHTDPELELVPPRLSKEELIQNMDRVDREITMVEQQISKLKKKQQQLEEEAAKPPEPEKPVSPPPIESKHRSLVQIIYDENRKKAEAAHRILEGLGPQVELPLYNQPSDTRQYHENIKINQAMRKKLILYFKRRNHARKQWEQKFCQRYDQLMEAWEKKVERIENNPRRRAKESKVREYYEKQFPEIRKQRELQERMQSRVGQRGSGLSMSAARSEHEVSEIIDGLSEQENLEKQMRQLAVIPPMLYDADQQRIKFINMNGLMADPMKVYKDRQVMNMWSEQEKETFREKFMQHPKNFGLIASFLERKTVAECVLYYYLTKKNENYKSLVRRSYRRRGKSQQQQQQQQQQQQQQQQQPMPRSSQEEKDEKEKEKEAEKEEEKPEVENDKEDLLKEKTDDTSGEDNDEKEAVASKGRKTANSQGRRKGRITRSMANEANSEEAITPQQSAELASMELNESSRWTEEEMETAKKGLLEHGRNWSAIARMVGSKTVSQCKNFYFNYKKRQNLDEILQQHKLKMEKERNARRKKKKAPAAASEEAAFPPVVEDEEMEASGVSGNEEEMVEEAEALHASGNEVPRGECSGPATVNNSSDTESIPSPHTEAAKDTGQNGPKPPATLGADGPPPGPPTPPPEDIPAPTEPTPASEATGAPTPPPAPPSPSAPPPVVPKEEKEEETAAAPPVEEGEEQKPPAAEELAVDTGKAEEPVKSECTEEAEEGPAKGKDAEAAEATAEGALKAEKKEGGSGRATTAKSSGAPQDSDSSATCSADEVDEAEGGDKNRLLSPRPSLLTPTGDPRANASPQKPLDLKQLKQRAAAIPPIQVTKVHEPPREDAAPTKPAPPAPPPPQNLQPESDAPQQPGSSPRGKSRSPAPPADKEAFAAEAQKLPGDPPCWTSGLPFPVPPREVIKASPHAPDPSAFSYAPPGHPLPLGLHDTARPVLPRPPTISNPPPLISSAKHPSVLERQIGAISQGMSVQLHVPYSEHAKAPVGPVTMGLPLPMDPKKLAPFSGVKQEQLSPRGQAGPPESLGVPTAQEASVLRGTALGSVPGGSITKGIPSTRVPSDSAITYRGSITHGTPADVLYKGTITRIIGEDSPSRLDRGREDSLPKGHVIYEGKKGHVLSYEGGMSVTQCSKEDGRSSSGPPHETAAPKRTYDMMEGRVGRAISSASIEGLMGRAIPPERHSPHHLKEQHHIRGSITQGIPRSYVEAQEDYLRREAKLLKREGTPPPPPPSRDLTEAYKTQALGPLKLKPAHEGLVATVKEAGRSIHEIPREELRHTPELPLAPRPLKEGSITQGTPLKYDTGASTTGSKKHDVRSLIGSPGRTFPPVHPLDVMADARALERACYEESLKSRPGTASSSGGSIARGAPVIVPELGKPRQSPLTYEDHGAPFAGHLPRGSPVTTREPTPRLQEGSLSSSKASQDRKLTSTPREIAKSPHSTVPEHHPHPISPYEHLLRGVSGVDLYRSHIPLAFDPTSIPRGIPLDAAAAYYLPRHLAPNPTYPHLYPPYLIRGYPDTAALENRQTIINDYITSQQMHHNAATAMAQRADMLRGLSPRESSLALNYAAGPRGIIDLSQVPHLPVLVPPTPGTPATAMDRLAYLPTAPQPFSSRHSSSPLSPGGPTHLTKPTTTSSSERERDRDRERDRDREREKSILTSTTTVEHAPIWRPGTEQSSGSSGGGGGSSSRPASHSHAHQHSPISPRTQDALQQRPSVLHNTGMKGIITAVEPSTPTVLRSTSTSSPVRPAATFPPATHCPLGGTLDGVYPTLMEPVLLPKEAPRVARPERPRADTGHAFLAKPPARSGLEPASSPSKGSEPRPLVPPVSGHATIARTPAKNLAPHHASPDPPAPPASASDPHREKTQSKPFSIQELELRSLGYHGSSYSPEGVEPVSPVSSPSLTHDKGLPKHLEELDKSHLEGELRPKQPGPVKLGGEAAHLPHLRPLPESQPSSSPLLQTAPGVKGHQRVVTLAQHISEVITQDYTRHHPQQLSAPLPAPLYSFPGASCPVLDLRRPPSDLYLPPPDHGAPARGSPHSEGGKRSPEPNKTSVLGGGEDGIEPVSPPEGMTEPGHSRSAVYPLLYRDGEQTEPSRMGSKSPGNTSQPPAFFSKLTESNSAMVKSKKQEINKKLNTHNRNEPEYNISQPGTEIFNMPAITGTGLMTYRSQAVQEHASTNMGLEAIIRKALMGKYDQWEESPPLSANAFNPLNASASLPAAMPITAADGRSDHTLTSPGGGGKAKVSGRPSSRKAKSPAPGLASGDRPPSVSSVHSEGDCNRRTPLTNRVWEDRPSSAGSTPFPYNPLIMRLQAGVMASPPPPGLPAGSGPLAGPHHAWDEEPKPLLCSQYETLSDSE
Procedure: as §1

HDAC4/5 = test: MEF2 reporter gene assay in HeLa cells; type: cell-based; conditions: relative to SAHA, 24 hours
Procedure: as §1

HDAC7 = target: T2, HDAC7 (Homo sapiens, UniProt Q8WUI4); test: Nur77 reporter gene assay in HeLa cells; type: cell-based; conditions: for activation at 10 µM: HeLa, 24 h, read-out: % of SAHA Response for HDAC7 at 10 μM (Nur77 reporter gene)
T2 construct: endogenous in cells; host or cells: HeLa
T2 sequence (Q8WUI4 1-952): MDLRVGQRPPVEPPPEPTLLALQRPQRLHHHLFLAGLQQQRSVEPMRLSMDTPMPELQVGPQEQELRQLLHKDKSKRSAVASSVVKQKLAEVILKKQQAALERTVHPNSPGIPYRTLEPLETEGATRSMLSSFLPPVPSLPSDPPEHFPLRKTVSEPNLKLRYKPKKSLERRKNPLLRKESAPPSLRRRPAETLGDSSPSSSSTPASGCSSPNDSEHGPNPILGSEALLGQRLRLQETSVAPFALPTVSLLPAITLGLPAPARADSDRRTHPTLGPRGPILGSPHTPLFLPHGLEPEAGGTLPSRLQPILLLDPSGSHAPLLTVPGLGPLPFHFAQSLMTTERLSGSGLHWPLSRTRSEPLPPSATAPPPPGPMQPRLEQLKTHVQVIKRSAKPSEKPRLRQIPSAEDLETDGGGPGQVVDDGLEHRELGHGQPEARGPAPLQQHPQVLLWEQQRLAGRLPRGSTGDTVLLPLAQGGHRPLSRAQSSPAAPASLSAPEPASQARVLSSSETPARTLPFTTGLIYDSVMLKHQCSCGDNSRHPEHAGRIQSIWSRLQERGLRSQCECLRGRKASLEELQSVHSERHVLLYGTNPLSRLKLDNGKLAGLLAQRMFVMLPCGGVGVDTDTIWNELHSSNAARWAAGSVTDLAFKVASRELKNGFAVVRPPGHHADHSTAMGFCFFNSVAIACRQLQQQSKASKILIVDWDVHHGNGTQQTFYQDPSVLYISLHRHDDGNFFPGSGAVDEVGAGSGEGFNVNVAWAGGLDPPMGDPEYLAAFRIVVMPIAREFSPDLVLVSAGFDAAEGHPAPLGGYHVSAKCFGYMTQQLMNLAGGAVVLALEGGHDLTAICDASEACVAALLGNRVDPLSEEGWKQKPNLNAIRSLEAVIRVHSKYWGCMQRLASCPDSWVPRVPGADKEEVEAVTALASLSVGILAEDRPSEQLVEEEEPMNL
Procedure: as §1

Hut-78 = test: Cell proliferation (MTS), Hut-78; type: cell-based; conditions: Homo sapiens, HuT78, 72 hours
Procedure: (§2) Measurement of In Vivo Cell Proliferation:
(§3) Tumor cells were trypsinized and plated into 96-well plates at 3,000 per well and incubated in complete medium with 10% FBS for 24 hours. Compounds were added over a final concentration range of 100 μmol/L to 100 nmol/L in 0.1% DMSO and incubated for 72 hours in complete medium. The effects on proliferation were determined by addition of MTS reagent (Promega) according to the instruction, incubation for 2 hours at 37° C. in CO2 incubator, and record the absorbance at 490 nm using an ELISA plate reader.

HL60 = test: Cell proliferation (MTS), HL60; type: cell-based; conditions: Homo sapiens, HL-60, 72 hours
Procedure: as §2, §3

HeLa = test: Cell proliferation (MTS), HeLa; type: cell-based; conditions: Homo sapiens, 72 hours
Procedure: as §2, §3

A549 = test: Cell proliferation (MTS), A549; type: cell-based; conditions: Homo sapiens, 72 hours
Procedure: as §2, §3

SMILES	% of Inhibition on total HDAC enzyme at 30 μM (total HDAC enzyme) [%]	% of SAHA Response for HDAC Class I at 10 μM (P21 reporter gene) (HDAC Class I) [%]	activation at 10 µM (HDAC3) [%]	% of SAHA Response for HDAC4/5 at 10 μM (MEF2 reporter gene) (HDAC4/5) [%]	activation at 10 µM (HDAC7) [%]	GI50 (Hut-78) [µM]	GI50 (HL60) [µM]	GI50 (HeLa) [µM]	GI50 (A549) [µM]	% of SAHA Response for HDAC3 at 10 μM (gdf11 reporter gene) (HDAC3; 10 μM, relative to SAHA, HeLa cells, 24 hours) [%]	% of SAHA Response for HDAC7 at 10 μM (Nur77 reporter gene) (HDAC7) [%]
Nc1ccccc1NC(=O)CCCCNC(=O)C=C1c2ccccc2-c2ccccc21 [Example 7, 5-(2-(9H-fluoren-9-ylidene)acetamido)-N-(2-aminophenyl)pentanamide]	42	49	36	31	19						
Nc1cc(F)ccc1NC(=O)CCCCNC(=O)C=C1c2ccccc2-c2ccccc21 [Example 8, 5-(2-(9H-fluoren-9-ylidene)acetamido)-N-(2-amino-4-fluorophenyl)pentanamide]	31.7	16	10	30	7						
O=C(C=C1c2ccccc2-c2ccccc21)NCCCCCC(=O)NO [Example 11, 6-(2-(9H-fluoren-9-ylidene)acetamido)-N-hydroxyhexanamide]	99	77				< 0.1	< 0.1	0.52	2.34		
Nc1cc(Cl)ccc1NC(=O)CCCCCNC(=O)C=C1c2ccccc2-c2ccccc21 [Example 14, 6-(2-(9H-fluoren-9-ylidene)acetamido)-N-(2-amino-4-chlorophenyl)hexanamide]		13	6	9	4						
Cc1ccc(NC(=O)CCCCCNC(=O)C=C2c3ccccc3-c3ccccc32)c(N)c1 [Example 15, 6-(2-(9H-fluoren-9-ylidene)acetamido)-N-(2-amino-4-methylphenyl)hexanamide]	42.4	21	14	15	4						
COc1ccc(NC(=O)CCCCCNC(=O)C=C2c3ccccc3-c3ccccc32)c(N)c1 [Example 16, 6-(2-(9H-fluoren-9-ylidene)acetamido)-N-(2-amino-4-methoxyphenyl)hexanamide]	29.2	21	12	27	10						
Nc1cc(C(F)(F)F)ccc1NC(=O)CCCCCNC(=O)C=C1c2ccccc2-c2ccccc21 [Example 17, 6-(2-(9H-fluoren-9-ylidene)acetamido)-N-(2-amino-4-trifluoromethylphenyl)hexanamide]	24.1	12	7	21	7						
O=C(C=C1c2ccccc2-c2ccccc21)NCCCCCCCC(=O)NO [Example 26, 8-(2-(9H-fluoren-9-ylidene)acetamido)-N-hydroxyoctanamide]	99.3	61	70	87	89						
Nc1cc(F)ccc1NC(=O)CCCCCCCNC(=O)C=C1c2ccccc2-c2ccccc21 [Example 27, 8-(2-(9H-fluoren-9-ylidene)acetamido)-N-(2-amino-4-fluorophenyl)octanamide]	42.3	18	12	16	7						
Nc1ccccc1NC(=O)CCCCCCCNC(=O)C=C1c2ccccc2-c2ccccc21 [Example 28, 8-(2-(9H-fluoren-9-ylidene)acetamido)-N-(2-aminophenyl)octanamide]	48	62	33	38	20						
O=C(CCCCCCC(=O)Nc1ccccc1)NO [SAHA, suberoylanilide hydroxamic acid, reference compound]		100		100						100	100
